“Also recorded” adds a separate entry of the source. Each block holds one substance with its values, some of them ahead of it.
What was measured:
[1] = test system: Fc region of IgG; conditions: ref [17],[21] (b5); ref [15],[16],[17]; cited from earlier work
Text: (§1) Nowadays, numerous synthetic peptides are designed to specifically recognize and bind the conserved fragment crystallizable (Fc) region of IgG [18, 19], which is one of the most widely utilized types of antibodies in bioanalytical analysis. The Fc binding peptides made excellent exposure of the fragment antigen binding (Fab) region of IgG and thus maintained an easy approachability to the antigen-binding sites of the immobilized antibodies.

[2] = test system: IgG; conditions: ref [22]; cited from earlier work
Text: as §1

[3] = biological target: heptapeptide HWRGWVC (HC7) coupled to poly(glycidyl methacrylate) nanospheres (PGMA-HC7); test: batch adsorption isotherm (Langmuir fit); bovine IgG 0.4-4 mg/mL added to PGMA-HC7 nanosphere suspension, physiological buffer, 37 °C, 5 min; supernatant IgG read at 280 nm after centrifugation, adsorbed amount by mass balance

Substance: HWRGWV [hexapeptide ligand that could specifically recognize the Fc region of the antibody]
- Fc selectivity relative to protein A / protein G [1]: comparable to protein A but not comparable to protein G; also recorded: comparable to protein A

Substance: HWRGWVC [HC7, heptapeptide ligand HWRGWVC, 95% purity, synthesized by GL Biochem Ltd]
- affinity for IgG relative to HWRGWV [2]: two orders of magnitude stronger

- Kd [3]: 5.8 µM
Substance: bovine immunoglobulin G (IgG) (antibody)

Source: publication PMC11477792, “Fabrication of a Heptapeptide-Modified Poly(glycidyl Methac-Rylate) Nanosphere for Oriented Antibody Immobilization and Immunoassay” (Molecules, 2024)
